Values quoted from earlier work, collected in publication PMC6958329, “New ^55Co-labeled Albumin-Binding Folate Derivatives as Potential PET Agents for Folate Receptor Imaging” (Pharmaceuticals, 2019).
Where two headings read alike, the source gives them in different places.

System: tumor
Design: method as in PMID 27145400
Conditions: previously reported, cited from earlier work

For `Nc1nc2ncc(CNc3ccc(C(=O)N[C@@H](CCC(=O)NC(CCCCNC(=O)CCC(C(=O)O)N4CCN(CC(=O)O)CCN(CC(=O)O)CC4)C(=O)NC(CCCCNC(=O)CCCc4ccc(I)cc4)C(=O)O)C(=O)O)cc3)nc2c(=O)[nH]1.[64Cu]` (stereo partly drawn) [[^64Cu]Cu-rf42], the tumor uptake (4 h post-injection) is given as 14.5% ± 1.0% and the tumor uptake (24 h post-injection) is given as 16% ± 4%.

For `Nc1nc2ncc(CNc3ccc(C(=O)N[C@@H](CCC(=O)NC(CCCCNC(=O)CCC(C(=O)O)N4CCN(CC(=O)O)CCN(CC(=O)O)CC4)C(=O)NC(CCCCNC(=O)CCCc4ccc(I)cc4)C(=O)O)C(=O)O)cc3)nc2c(=O)[nH]1.[68Ga]` (stereo partly drawn) [[^68Ga]Ga-rf42], the tumor uptake (4 h post-injection) is listed as 12% ± 2%.
